Target: T1, PPARγ (peroxisome proliferator-activated receptor-gamma) (Homo sapiens, UniProt P37231)
T1 construct: gene PPARG; human PPARγ protein with a His tag (HY-P7999, MCE)
T1 sequence (P37231 1-505): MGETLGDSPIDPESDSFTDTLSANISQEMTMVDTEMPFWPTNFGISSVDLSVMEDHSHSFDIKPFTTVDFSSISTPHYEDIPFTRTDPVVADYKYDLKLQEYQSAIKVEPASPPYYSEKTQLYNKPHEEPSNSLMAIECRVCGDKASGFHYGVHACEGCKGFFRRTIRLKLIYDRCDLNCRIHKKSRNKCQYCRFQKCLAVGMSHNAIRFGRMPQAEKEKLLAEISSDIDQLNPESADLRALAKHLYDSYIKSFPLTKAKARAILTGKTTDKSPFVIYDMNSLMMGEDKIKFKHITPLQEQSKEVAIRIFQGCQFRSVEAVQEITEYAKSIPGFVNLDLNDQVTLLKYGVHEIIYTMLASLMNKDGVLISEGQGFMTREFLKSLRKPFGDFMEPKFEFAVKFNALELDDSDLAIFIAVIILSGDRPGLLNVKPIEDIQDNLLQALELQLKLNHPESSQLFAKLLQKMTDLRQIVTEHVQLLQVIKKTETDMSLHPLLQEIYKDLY
Experiment: bio-layer interferometry (Octet K2, NTA biosensor, immobilized His-tagged PPARγ)
Format: binding

Row | Kd | Molecule
1 | 75.3 µM | COc1cc(O[C@@H]2O[C@H](CO)[C@@H](O)[C@H](O)[C@H]2O)c(-c2oc3cc(OC)c(OC)c(O)c3c(=O)c2OC)cc1O [CA1, Chrysosplenoside I]
2 | 32.4 µM | Chrysosplenoside A [CA2]

From paper PMC11749787, “Natural flavonoid glycosides Chrysosplenosides I & A rejuvenate intestinal stem cell aging via activation of PPARγ signaling” (Life Medicine, 2024)
